Reference: patent US10421760B2, “Pyrrolo[2,3-d]pyrimidine compound or salt thereof” (TAIHO PHARMACEUTICAL CO., LTD., priority 2015, dated 2019)

What was measured:
[1] = target: purified recombinant human JAK1 protein (Homo sapiens (Human), UniProt P23458); assay: JAK1 kinase-inhibiting activity (mobility shift, LabChip EZ Reader II); assay type: biochemical; conditions: ATP 75 μM, 25° C., 120 minutes
Method: 1) Measurement of JAK1 Kinase-Inhibiting Activity
The activity of the compound of the present invention to inhibit the activity of JAK1 kinase was measured.
(§1) Among materials for the measurement of this inhibiting activity, a substrate peptide and a kinase protein were acquired as follows. As such a substrate peptide, a substrate peptide for QSS Assist JAK1-MSA assay kit (Carna Biosciences, Inc.) was purchased. As such a kinase protein, a purified recombinant human JAK1 protein (Carna Biosciences, Inc.) was purchased.
The method for measuring the inhibiting activity is as follows. First, the compounds of the present invention were each dissolved in dimethyl sulfoxide (DMSO), and a serial dilution was then prepared using DMSO. Subsequently, a serial dilution solution of the compound (the final concentration of DMSO upon a kinase reaction: 5.0%) or DMSO (final concentration: 5.0%) was mixed with a solution comprising the substrate peptide (final concentration: 1 μM), magnesium chloride (final concentration: 5 mM) and ATP (final concentration: 75 μM) in a buffer for kinase reaction (20 mM HEPES (pH 7.5), 2 mM dithiothreitol and 0.01% Triton X-100). Thereafter, a JAK1 protein was further added to the mixed solution, and the obtained mixture was then incubated at 25° C. for 120 minutes to carry out a kinase reaction. To the reaction solution, EDTA was added to a final concentration of 30 mM, so as to terminate the reaction. Finally, using LabChip EZ Reader II (Perkin Elmer Corp.), an unphosphorylated substrate peptide (S) and a phosphorylated peptide (P) were subjected to microchannel capillary electrophoresis, so that the two peptides were separated from each other and were then detected. The amount of a phosphorylation reaction was obtained based on the heights of the peaks of S and P, and the concentration of the compound capable of inhibiting 50% of the phosphorylation reaction was defined as an IC50 value (nM).

[2] = target: purified recombinant human JAK3 protein (Homo sapiens (Human), UniProt P52333); assay: JAK3 kinase-inhibiting activity (mobility shift, LabChip EZ Reader II); assay type: biochemical; conditions: for IC50: ATP 5 μM, 25° C., 80 minutes
Method: 3) Measurement of JAK3 Kinase-Inhibiting Activity
The activity of the compound of the present invention to inhibit the activity of JAK3 kinase was measured.
as §1, with “JAK3-MSA” for “JAK1-MSA”, “JAK3” for “JAK1”
The method for measuring the inhibiting activity is as follows. First, a serial dilution of the compound of the present invention was prepared by the same method as that described in the above section regarding JAK1. This serial dilution solution (the final concentration of DMSO upon a kinase reaction: 5.0%) or DMSO (final concentration: 5.0%) was mixed with a solution comprising the substrate peptide (final concentration: 1 μM), magnesium chloride (final concentration: 5 mM) and ATP (final concentration: 5 μM) in a buffer for kinase reaction (20 mM HEPES (pH 7.5), 2 mM dithiothreitol and 0.01% Triton X-100). Thereafter, a JAK3 protein was further added to the mixed solution, and the obtained mixture was then incubated at 25° C. for 80 minutes to carry out a kinase reaction. To the reaction solution, EDTA was added to a final concentration of 30 mM, so as to terminate the reaction. After termination of the reaction, the measurement and the data analysis were carried out by the same methods as those described in the above section regarding JAK1.

human PBMC = assay: IL-2-dependent growth of human peripheral blood mononuclear cells (CellTiter-Glo); assay type: cell-based; conditions: 48 h, IL-2 2 ng/mL stimulation, 2 days
Method: The activity of the compound of the present invention to inhibit the IL-2-dependent growth reaction of human PBMC, which is caused by JAK3, was measured (Arthritis Rheum. 2010; 62(8): 2283-93).
Using a medium comprising 10 μg/mL PHA-M (Sigma) (which is RPMI-1640 (Sigma) comprising 10% human serum type AB (MP Biomedicals)), human PBMC (C.T.L.) (cell density: 1×10^6 cells/mL) was cultured at 37° C. in a culture vessel comprising 5% carbon dioxide for 3 days. Thereafter, the culture was washed with RPMI-1640 four times, and a medium (RPMI-1640 comprising 10% human serum type AB) was then added to the resultant culture to prepare a cell suspension. The cells (1×10^4 cells per well) and the serially diluted compound of the present invention were added to each well of a 96-well U-bottom microplate, and the thus obtained mixture was then cultured at 37° C. in a culture vessel comprising 5% carbon dioxide for 30 minutes. After completion of the culture, recombinant human IL-2 (Peprotech) was added to the culture to a final concentration of 2 ng/mL, and the obtained mixture was then stirred at 37° C. in a culture vessel comprising 5% carbon dioxide for 2 days (1×10^4 cells/100 μl/each well). After completion of the culture, the resultant was left at a room temperature for 30 minutes, and 100 μl of CellTiter-Glo Luminescent Cell Viability Assay (Promega) was then added to the resultant, followed by stirring it. Thereafter, the reaction mixture was left for 10 minutes, and the amount of a luminescence derived from living cells in each well was then measured using a microplate reader (TECAN). The inhibition rate of the present compound to the cell growth caused by IL-2 stimulation was calculated, and the concentration of the compound capable of inhibiting 50% of the cell growth was defined as an IC50 value (nM).

[3] = target: purified recombinant human JAK2 protein (Homo sapiens (Human), UniProt O60674); assay: JAK2 kinase-inhibiting activity (mobility shift, LabChip EZ Reader II); assay type: biochemical; conditions: ATP 10 μM, 25° C., 80 minutes
Method: 2) Measurement of JAK2 Kinase-Inhibiting Activity
The activity of the compound of the present invention to inhibit the activity of JAK2 kinase was measured.
as §1, with “FL-Peptide 22 (Perkin Elmer Corp.)” for “a substrate peptide for QSS Assist JAK1-MSA assay kit (Carna Biosciences, Inc.)”, “JAK2” for “JAK1”
The method for measuring the inhibiting activity is as follows. First, a serial dilution of the compound of the present invention was prepared by the same method as that described in the above section regarding JAK1. This serial dilution solution (the final concentration of DMSO upon a kinase reaction: 5.0%) or DMSO (final concentration: 5.0%) was mixed with a solution comprising the substrate peptide (final concentration: 1 μM), magnesium chloride (final concentration: 10 mM) and ATP (final concentration: 10 μM) in a buffer for kinase reaction (15 mM Tris (pH 7.5), 2 mM dithiothreitol and 0.01% Tween 20). Thereafter, a JAK2 protein was further added to the mixed solution, and the obtained mixture was then incubated at 25° C. for 80 minutes to carry out a kinase reaction. To the reaction solution, EDTA was added to a final concentration of 30 mM, so as to terminate the reaction. After termination of the reaction, the measurement and the data analysis were carried out by the same methods as those described in the above section regarding JAK1.

Sequence of purified recombinant human JAK2 protein (O60674 whole entry): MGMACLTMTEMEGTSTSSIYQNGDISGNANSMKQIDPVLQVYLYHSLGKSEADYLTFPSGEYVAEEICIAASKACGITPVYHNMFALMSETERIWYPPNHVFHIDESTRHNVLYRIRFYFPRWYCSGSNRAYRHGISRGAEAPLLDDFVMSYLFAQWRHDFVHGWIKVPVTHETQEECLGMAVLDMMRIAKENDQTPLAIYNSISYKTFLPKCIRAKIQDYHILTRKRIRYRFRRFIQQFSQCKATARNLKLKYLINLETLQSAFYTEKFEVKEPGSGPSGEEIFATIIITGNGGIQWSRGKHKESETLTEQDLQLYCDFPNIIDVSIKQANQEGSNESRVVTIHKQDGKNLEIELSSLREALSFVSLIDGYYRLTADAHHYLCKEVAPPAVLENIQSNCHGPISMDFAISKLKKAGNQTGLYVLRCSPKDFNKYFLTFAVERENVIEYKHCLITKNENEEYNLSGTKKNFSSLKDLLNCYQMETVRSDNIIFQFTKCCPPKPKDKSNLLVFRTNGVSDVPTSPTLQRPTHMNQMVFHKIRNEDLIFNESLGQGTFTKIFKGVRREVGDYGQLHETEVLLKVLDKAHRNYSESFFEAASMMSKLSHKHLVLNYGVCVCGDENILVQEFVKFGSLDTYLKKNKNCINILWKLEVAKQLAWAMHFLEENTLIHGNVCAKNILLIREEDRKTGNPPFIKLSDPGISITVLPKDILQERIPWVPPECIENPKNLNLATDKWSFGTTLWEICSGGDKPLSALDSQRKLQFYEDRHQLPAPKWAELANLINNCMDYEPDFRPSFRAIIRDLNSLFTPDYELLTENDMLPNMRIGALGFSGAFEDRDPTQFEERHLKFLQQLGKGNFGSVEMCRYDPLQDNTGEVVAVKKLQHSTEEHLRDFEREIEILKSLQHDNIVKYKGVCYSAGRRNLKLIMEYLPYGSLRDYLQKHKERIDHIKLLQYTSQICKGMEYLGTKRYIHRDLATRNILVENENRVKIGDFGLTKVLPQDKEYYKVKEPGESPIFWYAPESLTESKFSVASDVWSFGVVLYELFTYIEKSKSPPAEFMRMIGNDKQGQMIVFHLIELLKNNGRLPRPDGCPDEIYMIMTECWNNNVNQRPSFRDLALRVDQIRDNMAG
Sequence of purified recombinant human JAK1 protein (P23458 whole entry): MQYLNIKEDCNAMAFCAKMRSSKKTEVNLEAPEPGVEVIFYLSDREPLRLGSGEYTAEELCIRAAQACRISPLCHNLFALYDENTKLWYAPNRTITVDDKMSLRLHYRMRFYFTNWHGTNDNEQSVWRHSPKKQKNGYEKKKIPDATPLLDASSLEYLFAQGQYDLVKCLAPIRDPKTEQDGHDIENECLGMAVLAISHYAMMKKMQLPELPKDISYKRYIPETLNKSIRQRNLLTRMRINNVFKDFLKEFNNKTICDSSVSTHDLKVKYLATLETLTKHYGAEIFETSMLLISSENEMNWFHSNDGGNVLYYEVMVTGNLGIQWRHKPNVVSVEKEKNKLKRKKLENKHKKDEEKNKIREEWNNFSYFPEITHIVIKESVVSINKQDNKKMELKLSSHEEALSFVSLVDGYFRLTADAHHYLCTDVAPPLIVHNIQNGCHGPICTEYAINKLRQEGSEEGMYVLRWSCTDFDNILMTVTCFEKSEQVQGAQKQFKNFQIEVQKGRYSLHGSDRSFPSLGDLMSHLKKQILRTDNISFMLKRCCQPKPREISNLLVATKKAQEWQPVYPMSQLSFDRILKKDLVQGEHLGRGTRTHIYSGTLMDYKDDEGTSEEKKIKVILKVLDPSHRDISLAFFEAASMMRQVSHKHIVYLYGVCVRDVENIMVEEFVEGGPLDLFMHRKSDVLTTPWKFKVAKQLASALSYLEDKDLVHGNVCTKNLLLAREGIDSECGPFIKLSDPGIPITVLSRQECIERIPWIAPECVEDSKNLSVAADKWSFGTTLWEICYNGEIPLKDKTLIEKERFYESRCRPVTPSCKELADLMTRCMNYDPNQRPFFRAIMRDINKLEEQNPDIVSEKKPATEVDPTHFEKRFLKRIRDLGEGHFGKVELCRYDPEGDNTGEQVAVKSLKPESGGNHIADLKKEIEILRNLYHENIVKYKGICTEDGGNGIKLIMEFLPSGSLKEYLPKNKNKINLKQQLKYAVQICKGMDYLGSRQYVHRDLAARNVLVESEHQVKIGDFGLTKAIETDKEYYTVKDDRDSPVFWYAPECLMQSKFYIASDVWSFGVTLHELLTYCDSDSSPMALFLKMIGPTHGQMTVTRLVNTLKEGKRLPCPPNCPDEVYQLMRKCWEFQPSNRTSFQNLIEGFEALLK
Sequence of purified recombinant human JAK3 protein (P52333 whole entry): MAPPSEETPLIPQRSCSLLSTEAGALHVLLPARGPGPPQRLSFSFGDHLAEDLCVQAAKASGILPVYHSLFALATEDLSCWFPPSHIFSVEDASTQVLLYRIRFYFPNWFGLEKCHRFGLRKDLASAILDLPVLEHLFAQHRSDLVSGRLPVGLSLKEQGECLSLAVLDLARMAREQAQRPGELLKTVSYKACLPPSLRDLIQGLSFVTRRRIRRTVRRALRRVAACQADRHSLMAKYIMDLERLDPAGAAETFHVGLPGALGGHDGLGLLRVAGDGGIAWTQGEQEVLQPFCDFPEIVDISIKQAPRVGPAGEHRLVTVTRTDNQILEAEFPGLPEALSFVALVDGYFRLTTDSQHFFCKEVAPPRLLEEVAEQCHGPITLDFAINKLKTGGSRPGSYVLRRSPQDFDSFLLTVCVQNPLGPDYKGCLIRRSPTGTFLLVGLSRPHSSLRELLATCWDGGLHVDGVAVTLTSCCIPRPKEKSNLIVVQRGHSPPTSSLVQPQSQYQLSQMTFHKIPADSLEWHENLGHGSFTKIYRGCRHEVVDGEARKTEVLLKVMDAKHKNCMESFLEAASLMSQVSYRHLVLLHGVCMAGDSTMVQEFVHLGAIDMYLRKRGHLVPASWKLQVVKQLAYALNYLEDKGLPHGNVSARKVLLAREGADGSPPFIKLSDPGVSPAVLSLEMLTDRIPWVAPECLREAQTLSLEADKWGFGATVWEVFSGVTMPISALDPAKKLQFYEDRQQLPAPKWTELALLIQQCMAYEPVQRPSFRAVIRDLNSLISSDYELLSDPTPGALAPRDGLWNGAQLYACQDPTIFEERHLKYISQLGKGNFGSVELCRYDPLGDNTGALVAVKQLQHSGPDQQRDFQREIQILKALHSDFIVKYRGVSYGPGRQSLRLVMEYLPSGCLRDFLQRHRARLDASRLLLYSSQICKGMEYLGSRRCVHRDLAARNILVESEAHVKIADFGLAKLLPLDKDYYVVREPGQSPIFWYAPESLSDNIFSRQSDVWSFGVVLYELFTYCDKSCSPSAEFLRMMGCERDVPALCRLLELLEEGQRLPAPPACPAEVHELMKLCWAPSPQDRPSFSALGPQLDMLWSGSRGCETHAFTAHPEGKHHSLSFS

| Structure (SMILES) | IC50 [1] | IC50 [2] | JAK3-inhibiting activity attenuated in comparison to the compound of the present invention ([2]; in terms of IC50 value) | IC50 [3] | selectivity to JAK3 versus JAK1 or JAK2 ([2]; in terms of IC50 value) | IC50 (human PBMC) |
| --- | --- | --- | --- | --- | --- | --- |
| C=CC(=O)NC1CCC=C(c2ncnc3[nH]cc(-c4ccc(C)cc4)c23)C1 (stereo not shown) [Comparative Example 4, N-(3-(5-(p-Tolyl)-7H-pyrrolo[2,3-d]pyrimidin-4-yl)cyclohex-3-en-1-yl)acrylamide, reference compound] | – | – | – | – | – | > 1000 nM |
| C=CC(=O)NC1CCC=C(c2ncnc3[nH]cc(-c4ncccn4)c23)C1 (stereo not shown) [Comparative Example 8, N-(3-(5-(Pyrimidin-2-yl)-7H-pyrrolo[2,3-d]pyrimidin-4-yl)cyclohex-3-en-1-yl)acrylamide, reference compound] | – | 21.4 nM | ≥ 20 times | > 10000 nM | – | – |
| C=CC(=O)NC1CCC=C(c2ncnc3[nH]cc(-c4cc5ccccc5o4)c23)C1 (stereo not shown) [Comparative Example 9, N-(3-(5-(Benzofuran-2-yl)-7H-pyrrolo[2,3-d]pyrimidin-4-yl)cyclohex-3-en-1-yl)acrylamide, reference compound] | – | – | – | – | – | > 1000 nM |
| C1=C(c2ncnc3[nH]ccc23)CCCC1 [Comparative Example 10, 4-(Cyclohex-1-en-1-yl)-7H-pyrrolo[2,3-d]pyrimidine, reference compound] | 414 nM | 125 nM | ≥ 100 times | 166 nM | not observed | – |
| C=CC(=O)N[C@H]1CCC[C@@H](c2ncnc3[nH]cc(-c4ccco4)c23)C1 [Comparative Example 11(a), N-((1S,3R)-3-(5-(Furan-2-yl)-7H-pyrrolo[2,3-d]pyrimidin-4-yl)cyclohexyl)acrylamide, reference compound] | > 10000 nM | 21 nM | – | 2440 nM | – | > 3000 nM |
| C=CC(=O)N[C@H]1CCC[C@H](c2ncnc3[nH]cc(-c4ccco4)c23)C1 [Comparative Example 11(b), N-((1S,3S)-3-(5-(Furan-2-yl)-7H-pyrrolo[2,3-d]pyrimidin-4-yl)cyclohexyl)acrylamide, reference compound] | > 10000 nM | 19 nM | – | 880 nM | – | 1940 nM |
| C=CC(=O)NC1CCC=C(c2ncnc3[nH]cc(-c4cccs4)c23)C1 (stereo not shown) [Compound 2, N-(3-(5-(Thiophen-2-yl)-7H-pyrrolo[2,3-d]pyrimidin-4-yl)cyclohex-3-en-1-yl)acrylamide] | 900 nM | < 0.3 nM | – | 480 nM | – | 110 nM |
| C=CC(=O)NC1CCC=C(c2ncnc3[nH]cc(-c4ccco4)c23)C1 (stereo not shown) [Compound 5, N-(3-(5-(Furan-2-yl)-7H-pyrrolo[2,3-d]pyrimidin-4-yl)cyclohex-3-en-1-yl)acrylamide] | 720 nM | < 0.3 nM | – | 430 nM | – | 38 nM |

Continued, in another order:

| IC50 [1] | IC50 [2] | JAK3-inhibiting activity attenuated in comparison to the compound of the present invention ([2]; in terms of IC50 value) | IC50 [3] | selectivity to JAK3 versus JAK1 or JAK2 ([2]; in terms of IC50 value) | Structure (SMILES) | IC50 (human PBMC) |
| --- | --- | --- | --- | --- | --- | --- |
| 880 nM | 44 nM | ≥ 20 times | – | – | C=C(C)C(=O)NC1CCC=C(c2ncnc3[nH]cc(-c4ccccc4)c23)C1 (stereo not shown) [Comparative Example 1, N-(3-(5-Phenyl-7H-pyrrolo[2,3-d]pyrimidin-4-yl)cyclohex-3-en-1-yl)methacrylamide, reference compound] | – |
| 730 nM | 27 nM | ≥ 20 times | – | – | C/C=C/C(=O)NC1CCC=C(c2ncnc3[nH]cc(-c4ccccc4)c23)C1 (stereo not shown) [Comparative Example 2, (E)-N-(3-(5-Phenyl-7H-pyrrolo[2,3-d]pyrimidin-4-yl)cyclohex-3-en-1-yl)but-2-enamide, reference compound] | – |
| 880 nM | < 0.3 nM | – | 470 nM | – | C=CC(=O)NC1CCC=C(c2ncnc3[nH]cc(-c4ccccc4)c23)C1 (stereo not shown) [Compound 1, N-(3-(5-phenyl-7H-pyrrolo[2,3-d]pyrimidin-4-yl)cyclohex-3-en-1-yl)acrylamide] | – |
| 1500 nM | < 0.3 nM | – | 850 nM | – | C=CC(=O)NC1CCC=C(c2ncnc3[nH]cc(-c4ccsc4)c23)C1 (stereo not shown) [Compound 3, N-(3-(5-(Thiophen-3-yl)-7H-pyrrolo[2,3-d]pyrimidin-4-yl)cyclohex-3-en-1-yl)acrylamide] | – |
| 2900 nM | 0.42 nM | – | 1300 nM | – | C=CC(=O)NC1CCC=C(c2ncnc3[nH]cc(-c4ccoc4)c23)C1 (stereo not shown) [Compound 4, N-(3-(5-(Furan-3-yl)-7H-pyrrolo[2,3-d]pyrimidin-4-yl)cyclohex-3-en-1-yl)acrylamide] | – |
| – | 0.68 nM | – | 660 nM | – | C=CC(=O)NC1C=C(c2ncnc3[nH]cc(-c4ccccc4)c23)CC1 (stereo not shown) [Compound 10, N-(3-(5-Phenyl-7H-pyrrolo[2,3-d]pyrimidin-4-yl)cyclopent-2-en-1-yl)acrylamide] | – |
| 3200 nM | 0.35 nM | – | 870 nM | – | C=CC(=O)NC1C=C(c2ncnc3[nH]cc(-c4ccccc4)c23)CCC1 (stereo not shown) [Compound 12, N-(3-(5-Phenyl-7H-pyrrolo[2,3-d]pyrimidin-4-yl)cyclohex-2-en-1-yl)acrylamide] | – |
| 2600 nM | 0.33 nM | – | 450 nM | – | C=CC(=O)NC1C=C(c2ncnc3[nH]cc(-c4ccco4)c23)CCC1 (stereo not shown) [Compound 15, N-(3-(5-(Furan-2-yl)-7H-pyrrolo[2,3-d]pyrimidin-4-yl)cyclohex-2-en-1-yl)acrylamide] | – |
| 4900 nM | 0.77 nM | – | 1000 nM | – | C=CC(=O)NC1C=C(c2ncnc3[nH]cc(-c4ccoc4)c23)CCC1 (stereo not shown) [Compound 16, N-(3-(5-(Furan-3-yl)-7H-pyrrolo[2,3-d]pyrimidin-4-yl)cyclohex-2-en-1-yl)acrylamide] | – |
